Source: article PMC5147771, “High-Resolution Genetics Identifies the Lipid Transfer Protein Sec14p as Target for Antifungal Ergolines” (PLoS Genetics, 2016)
pIC50: −log10 of the molar value. Read-outs that look alike come from different tables or passages of the source.

How the values were obtained:
C. neoformans ATCC 90113 = experiment: C. neoformans growth inhibition (CLSI M27-A3 broth microdilution); assay type: cell-based; conditions: 72 h, triplicate values printed singly; for MIC: Cryptococcus neoformans, ATCC90113, 72 h
Excerpt: (§1) Sec14p is reported to be essential for virulence as well as for growth in C. neoformans. The S. cerevisiae and C. neoformans proteins show 53% similarity by pair-wise alignment with higher conservation of the residues in the lipid-binding pocket (S2 Fig). Furthermore, three of the four sites identified to be critical for NGx04 sensitivity, are conserved (S2 Fig). In combination with the current high unmet medical need related to Cryptococcus infections we prioritized testing of NGx04 and 18 related ergoline scaffold analogs against this pathogen. Two clinical isolates of C. neoformans (ATCC 36556 and ATCC 90113) were plated in triplicates on increasing drug concentrations and MIC-2 (50% inhibition) and MIC-0 (no visible fungal growth) concentrations were scored after 72 hrs. (Fig 5).
(§2) C. neoformans strains ATCC 36556, a lung isolate, and ATCC 90113, a cerebrospinal fluid isolate, were purchased from ATCC, Manassas, VA (USA). BPY22 was obtained from.
(§3) Antifungal susceptibility testing was conducted according to the Clinical and Laboratory Standards Institute (CLSI) guidelines for broth microdilution assay M27-A3. Testing was performed in RPMI-1640 (HyClone) with 2.05 mM glutamine, phenol red, without bicarbonate and buffered with 0.165 mol/l 3-(N-morpholino) propanesulfonic acid (MOPS). The medium was adjusted to pH 7.0 and sterilized with a 0.2 μm filter. Two endpoints were recorded: MIC-0 (complete inhibition with no visible fungal growth) and MIC-2 (prominent inhibition corresponding to >50% growth reduction).

C. neoformans ATCC 36556 = experiment: as above; assay type: cell-based; conditions: for MIC: Cryptococcus neoformans, ATCC36556, 72 h
Excerpt: as §1, §2, §3

[1] = Artificial membrane permeability assay; assay type: in vitro ADME; conditions: PAMPA, to assess blood brain barrier penetration
Description: Invasion of the central nervous system by C. neoformans is a prerequisite for fungal meningitis. We thus performed artificial membrane permeability assays in order to assess the potential of the cryptococcal active compounds to penetrate the blood brain barrier (S7 Fig). […] High permeability of ergolines is expected, as members of the ergoline class are used as psychedelic narcotics since their discovery.
Metabolic stability was determined as described previously on a fully automated platform, the artificial membrane permeability assays was performed as described previously
Supplementary file pgen.1006374.s007.eps: S7 Fig Physicochemical properties of ergolines. Rat liver microsome and artificial membrane permeability assay. NGx04 and close analogues were tested for metabolic stability (CYP MetCL) and artificial membrane permeability (logPAMPA) in duplicates. Value pairs are color coded and binning is indicated. (EPS) Click here for additional data file.

MTS cytotoxicity assay = assay type: cell-based; conditions: human, HepG2 cells, triplicates, logistic regression
Excerpt: (§4) One key requirement of antifungal medicines is selective inhibition of the pathogen over the mammalian host. To explore potential undesired activity of NGx04 against mammalian cells we used the Cancer Cell Line Encyclopedia CCLE, a collection of 512 human cancer cell lines (broadinstitute.org/ccle). Dose-response curves for NGx04 were generated in a proliferation assay and IC50 values determined. […] Since HepG2 cells are known to be a suitable tool to profile toxicity of compounds [40], we used this liver-derived line to assess cytotoxicity of NGx04. […] 16 of 21 amino acid residues within a 5 Å radius from any atom of the docked Ngx04 ligand were not conserved between the two proteins. Critical differences in the active site of the human protein are the residues F178, C128, I151 and L186 (corresponding to S201, Y151, T175 and M209 in yeast) which form a smaller and more hydrophobic pocket compared to the yeast protein (Fig 4C). […]
(§5) Fig 4 Fungal selectivity. […] A) Dose-response curves for NGx04 were generated in growth inhibition assay and IC50 values determined in duplicates. […]
(§6) Profiling across the Cancer Cell Line Encyclopedia was performed as described previously. MTS toxicity was determined using a CellTiter 96 AQueous One Solution Cell Proliferation Assay kit from Peomega.

[2] = tested on: wild type yeast carrying plasmid SEC14 variants; experiment: Growth inhibition titration of yeast re-transformed with plasmids coding for SEC14 variants; conditions: Saccharomyces cerevisiae, 18 h
Description: A plasmid containing the wild type copy of SEC14 was used as control to exclude resistance due to SEC14 gene copy-number effects.
B) The plasmids coding for various SEC14 proteins were re-transformed into a fresh wild type yeast strain and serial dilutions of the cultures spotted on either 150 μM of NGx04 or DMSO control, incubated for 3 days at 30°C and scored for growth. C) The strains were grown for 24 h in the presence of increasing concentrations of NGx04 and growth measured by turbidity (OD600). Duplicate values were determined and the 18 h time point was used for logistic regression.

S. cerevisiae BY4741 = experiment: Phosphatidylinositol (PI) and phosphatidylcholine (PC) competition growth assay; assay type: cell-based; conditions: medium with 200 μM PI or 200 μM PC
Excerpt: To test this hypothesis, the S. cerevisisae x-ray structure of Sec14p was used to dock the NGx04 ligand into the lipid-binding cavity (Fig 3B). In the resulting docking model, the ester moiety of the ligand formed an H-bond with Y111 while the ergoline amine formed an H-bond with T175. The ergoline moiety also made van der Waals interactions with the residues Y122, Y151, S173, M177 and F212. The calculated docking model was in agreement with the experimental data from the mutagenesis study, as three of the four identified resistance conferring mutations were directly involved in ligand interactions (Y111, Y151 and S173) and the identified V154 residue, although not directly involved in ligand interactions, was only 4.5 Å away from NGx04. The model outlines that a larger residue at this position like Isoleucine would be deleterious for ligand binding. As our docking experiment was biased towards the lipid-binding cavity we aimed at further supporting evidence for NGx04 binding in this protein pocket. To do so we tested if NGx04 would compete for phospholipid-binding in the Sec14p cavity. […]
S. cerevisiae BY4741 (Open Biosystems) was grown in YPD medium in the absence or presence of additional phosphatidylinositol or phosphatidylcholine (200 μM each, Sigma-Aldrich 79401 or P3556, respectively). OD600 values of exponentially growing yeast cultures were recorded with a robotic system. […]

[3] = tested on: 512 human cancer cell lines; experiment: Cancer Cell Line Encyclopedia proliferation assay; assay type: cell-based
Excerpt: as §4, §5, §6

S. cerevisiae = experiment: High-throughput screen of compound archive against S. cerevisiae; assay type: cell-based; conditions: Saccharomyces cerevisiae; validated hit of high-throughput screen
[4] = tested on: S. cerevisiae deletion strains; experiment: Single strain growth inhibition of deletion strains (turbidity OD600); assay type: cell-based; conditions: Saccharomyces cerevisiae, 24 h
[5] = 50% inhibition, read-out: ATCC90113 MIC-2
[6] = no visible fungal growth, read-out: ATCC90113 MIC-0
[7] = 50% inhibition, 72 h, triplicate values printed singly, read-out: ATCC36556 MIC-2
[8] = no visible fungal growth, 72 h, triplicate values printed singly, read-out: ATCC36556 MIC-0

SMILES: CC(C)N1CC(C(=O)O)CC2c3cccc4c3C(CC21)CN4C(=O)OC(C)(C)C (stereo not drawn) [NGx13]
- ATCC90113 MIC-2 (C. neoformans ATCC 90113; 50% inhibition): 50 µg/mL
- MIC (C. neoformans ATCC 90113; [5]): > 50 µg/mL
- MIC (C. neoformans ATCC 90113; [6]): > 50 µg/mL
- ATCC36556 MIC-2 (C. neoformans ATCC 36556; 50% inhibition, 72 h, triplicate values printed singly): 13 µg/mL
- MIC (C. neoformans ATCC 36556; [7]): 25 µg/mL
- MIC (C. neoformans ATCC 36556; [8]): > 50 µg/mL
- artificial membrane permeability [1]: exception

SMILES: COC(=O)C1CC2c3ccc([N+](=O)[O-])c4c3C(CC2N(C)C1)CN4C(=O)OCC(Cl)(Cl)Cl (stereo not drawn) [NGx04]
- pIC50 (MTS cytotoxicity assay): 3.80
- MIC (C. neoformans ATCC 90113; [5]): 25 µg/mL
- MIC (C. neoformans ATCC 90113; [6]): > 50 µg/mL
- MIC (C. neoformans ATCC 36556; [7]): 25 µg/mL
- MIC (C. neoformans ATCC 36556; [8]): 50 µg/mL
- C. neoformans growth inhibition (in words) (C. neoformans ATCC 36556; clinical isolates ATCC 36556 and ATCC 90113, tested dose range): inhibit C. neoformans growth
- ATCC36556 MIC-0 (C. neoformans ATCC 36556; no visible fungal growth, 72 h, triplicate values printed singly): > 50 µg/mL
- pIC50 ([2]; read-out: IC50, SEC14 S173A): 3.50
- pIC50 ([2]; read-out: IC50, SEC14 V154I): 3.65
- pIC50 ([2]; read-out: IC50, SEC14 WT plasmid): 4.39
- effect of excess PI or PC on growth inhibition (S. cerevisiae BY4741): alleviate NGx04-mediated growth inhibition
- cell lines sensitive ([3]; share of cell lines, sensitive defined by Amax <50% and IC50 <30 μM): one fourth
- cell lines not notably affected / not significantly inhibited ([3]; share of the tested CCLE cell lines): 76%
- pIC50 (S. cerevisiae): > 4.70
- pIC50 ([4]; read-out: IC50, strain KES1/kes1): 4.72
- pIC50 ([4]; read-out: IC50, strain SEC14/sec14): 5.20
- pIC50 ([4]; read-out: IC50, strain ho/ho): 4.93
- pIC50 ([4]; read-out: IC50, strain itr1/itr1): 5.28
- pIC50 ([4]; read-out: IC50, strain spo14/spo14): 5.36
- pIC50 ([4]; read-out: IC50, strain srf1/srf1): 5.42
